Experimental data published in US12139470B2, “Trioxolane agents” (The Regents of the University of California, priority 2017, dated 2024).
In brackets after ≈: the same amount, converted by molar mass. Like-named read-outs stand apart in the source and are kept apart here.

What was measured:
[1] = Mouse liver microsome assay (half-life, intrinsic clearance); conditions: for T1/2: half-life when incubated with mouse liver microsomes
Description: A second hypothesis regarding trans-R^A substitution (R^A in Scheme 1) was that the resulting de-symmetrized molecular topology would impact the vivo PK/PD properties of these analogs. […] To explore possible metabolic differences, we evaluated selected analogs with mouse liver microsomes and derived intrinsic clearance (CLint) values (Table 1).

Plasmodium berghei [2] = test: Plasmodium berghei mouse malaria model (Peters test, cures at 30 days); format: in vivo; conditions: po, 720 h; for responders at 4 mg/kg: Table 6, 4 mg/kg
Description: The suppressive 4-day “Peters test” ^27 involving P. berghei infected mice provides a convenient and cost effective means to assess the overall in vivo performance of pre-clinical antimalarials. […] Mice were followed for 30 days and judged to have been cured of the infection based on the lack of detectable parasitemia at the end of the study.
Female Swiss Webster Mice (average of 20 g body weight) were infected intraperitoneally with 10^6 Plasmodium berghei-infected erythrocytes collected from a previously infected mouse. […] There were five mice in each test arm. Infections were monitored by daily microscopic evaluation of Giemsa-stained blood smears starting on day seven. Parasitemia were determined by counting the number of infected and uninfected erythrocytes. Body weight was measured over the course of the treatment. […] Animal survival and morbidity were closely monitored for up to 30 days post-infection when the experiment was terminated. In some cases survival is expressed as a PD100 or PD50, the dose that produces respectively 100% or 50% cures in treated animals at 30 days post infection.

[3] = tested on: Plasmodium falciparum: strain W2; test: Plasmodium falciparum growth inhibition assay (EC50 determinations); format: cell-based; conditions: W2 strain of P. falciparum
Method: The growth inhibition assay for P. falciparum was conducted as described previously^29 with minor modifications. […] Following 48 hours of incubation, the cells were fixed by adding 0.1 ml of 2% formaldehyde in phosphate buffered saline, pH=7.4 (PBS). […] Parasitemias were determined from dot plots (forward scatter vs. fluorescence) using [sequence] software (Becton Dickinson). EC50 values for growth inhibition were determined from plots of percentage control parasitemia over inhibitor concentration using GraphPad Prism software.

[4] = Kinetic solubility in PBS; format: physicochemical; conditions: kinetic solubility in PBS (pH = 7.4), final DMSO 5%, average of three determinations
PC3 tumor = test: Biodistribution of 18F probes in PC3 tumor-bearing mice; format: in vivo, mouse
Method: FIG. 6. B9[^18F] biodistribution in PC3-bearing mice. An intravenous injection of 300 μCi was given at the tail vein of each mouse. At 30, 60 and 90 minutes post-injection, mice were sacrificed and their organs collected. […] FIG. 7. B9[^18F] biodistribution in PC3-bearing mice. An intravenous injection of 300 μCi was given at the tail vein of mice containing either a subcutaneous PC3 tumor or a renal capsule PC3 tumor. At 60 minutes post-injection, mice were sacrificed and their organs collected. […] FIG. 8. B20[^18F] biodistribution in PC3 tumor-bearing nude mice: An intravenous injection of 300 μCi was given at the tail vein of each mouse. At 60 and 90 minutes post-injection, mice were sacrificed and their organs collected. The radioactivity in the tumor appears to be stable at about 0.3% id/gram.

[5] = tested on: clinical K13-mutant strain; conditions: pulsed exposure; cited from earlier work
[6] = tested on: K13 revertant strain bearing the wild type K13 allele; conditions: pulsed exposure; cited from earlier work
[7] = clinical setting; cited from earlier work
Plasmodium berghei [8] = test: Plasmodium berghei mouse malaria model (Peters test, cures at 30 days); format: in vivo; conditions: po, 720 h, oral gavage, read-out: Mice Cured (%)
[9] = Table 4, 4 mg/kg/day, once a day for four days, oral gavage, read-out: Mice Cured (%)
[10] = Table 4, 6 mg/kg/day, once a day for four days, oral gavage, read-out: Mice Cured (%)

| SMILES | T1/2 [1] [h] | CLint ([1]; mouse, microsomes) | T1/2 (min) No NADPH ([1]; mouse, microsomes) | responders at 4 mg/kg/day (Plasmodium berghei [2]; [9]) [%] | responders at 6 mg/kg/day (Plasmodium berghei [2]; [10]) [%] | also measured |
| --- | --- | --- | --- | --- | --- | --- |
| CC(C)(CN)CNC(=O)C[C@@H]1CCC[C@]2(C1)OOC1(O2)C2CC3CC(C2)CC1C3 (stereo partly drawn) [12d, N-(3-Amino-2,2-dimethylpropyl)-2-((R,R)-dispiro[adamantane-2,3′-[1,2,4]trioxolane-5′,1″-cyclohexan]-3″-yl)acetamide] | 1.07 | 10.8 μL/min/mg of protein | stable | 0 | 0 | – |
| O=C(C[C@@H]1CCC[C@]2(C1)OOC1(O2)C2CC3CC(C2)CC1C3)N1CCOCC1 (stereo partly drawn) [12f, 2-((R,R)-Dispiro[adamantane-2,3′-[1,2,4]trioxolane-5′,1″-cyclohexan]-3″-yl)-1-morpholinoethan-1-one] | – | – | – | 0 | 0 | potency of 12f relative to regioisomer 2f [3]: three-fold more potent than 2f |
| N[C@H]1CC[C@H](NC(=O)C[C@@H]2CCC[C@]3(C2)OOC2(O3)C3CC4CC(C3)CC2C4)CC1 (stereo partly drawn) [12j, N-((trans)-4-Aminocyclohexyl)-2-((R,R)-dispiro[adamantane-2,3′-[1,2,4]trioxolane-5′,1″-cyclohexan]-3″-yl)acetamide] | – | – | – | 60 | 100 | – |
| CC(C)(N)CNC(=O)C[C@@H]1CCC[C@]2(C1)OOC1(O2)C2CC3CC(C2)CC1C3 (stereo partly drawn) [12a, N-(2-Amino-2-methylpropyl)-2-((R,R)-dispiro[adamantane-2,3′-[1,2,4]trioxolane-5′,1″-cyclohexan]-3″-yl)acetamide] | 2.82 | 4.1 μL/min/mg of protein | stable | 60 | 100 | Solubility [4]: 429 µM (≈ 168 µg/mL); responders at 9.5 mg/kg/day (Plasmodium berghei [2]; Table 2, free base, 9.5 mg/kg/day, once a day for four days, oral gavage, no parasitemia at 30 days, read-out: Mice Cured (%)): 100%; responders at 13.6 mg/kg/day (Plasmodium berghei [2]; Table 2, tosylate salt, 13.6 mg/kg/day, once a day for four days, oral gavage, no parasitemia at 30 days, read-out: Mice Cured (%)): 100%; responders at 1 mg/kg/day (Plasmodium berghei [2]; Table 3, free base, 1 mg/kg/day, four daily doses, oral gavage, read-out: Mice Cured (%)): 0%; responders at 4 mg/kg/day (Plasmodium berghei [2]; Table 3, free base, 4 mg/kg/day, four daily doses, oral gavage, read-out: Mice Cured (%)): 0%; responders at 6 mg/kg/day (Plasmodium berghei [2]; Table 3, free base, 6 mg/kg/day, four daily doses, oral gavage, read-out: Mice Cured (%)): 60%; responders at 10 mg/kg/day (Plasmodium berghei [2]; Table 3, free base, 10 mg/kg/day, four daily doses, oral gavage, read-out: Mice Cured (%)): 100% |
| CC(C)(N)CNC(=O)C[C@H]1CC[C@]2(CC1)OO[C@]1(O2)C2CC3CC1CC(C(=O)NCCCNC(=O)c1ccc(F)cc1)(C3)C2 [B20[^18F], (1R,2r,3S,4″S,5S,5′s,7S)-4″-(2-((2-amino-2-methylpropyl)amino)-2-oxoethyl)-N-(3-(4-^18F-fluorobenzamido)propyl)dispiro[adamantane-2,3′-[1,2,4]trioxolane-5′,1′″-cyclohexane]-5-carboxamide] | – | – | – | – | – | radioactivity in the tumor (PC3 tumor; PC3 tumor-bearing nude mice, 300 μCi i.v. tail vein, 60 and 90 minutes post-injection): about 0.3 % id/gram |
| O=C(C[C@@H]1CCC[C@]2(C1)OOC1(O2)C2CC3CC(C2)CC1C3)N1CCNCC1 (stereo partly drawn) [12g, 2-((R,R)-Dispiro[adamantane-2,3′-[1,2,4]trioxolane-5′,1″-cyclohexan]-3″-yl)-1-(piperazin-1-yl)ethan-1-one] | 0.425 | 27.2 μL/min/mg of protein | stable | 0 | 20 | – |
| C[C@]12CC[C@H]3[C@@H](CCC4=CC(=O)CC[C@@]43C)[C@@H]1CC[C@@H]2O [testosterone] | – | – | – | – | – | Solubility [4]: 315 µM (≈ 90.9 µg/mL) |
| c1cc([C@H]2CC[C@]3(CC2)OO[C@]2(O3)C3CC4CC(C3)CC2C4)ccc1OCCN1CCOCC1 [3Z, artefenomel] | – | – | – | – | – | time to reduce early ring viability by 50% (t50) [5]: ~5 h; time to reduce early ring viability by 50% (t50) [6]: ~2 h |
| C[C@H]1[C@@H](O)O[C@@H]2O[C@@]3(C)CC[C@H]4[C@H](C)CC[C@@H]1[C@@]24OO3 [DHA, dihydroartemisinin] | – | – | – | – | – | half-life [7]: ~1 h |
| c1cc([C@H]2CC[C@]3(CC2)OO[C@]2(O3)C3CC4CC(C3)CC2C4)ccc1OCCN1CCOCC1 [3Z (artefenomel)] | – | – | – | – | – | responders at 40 mg/kg (Plasmodium berghei [2]; read-out: Mice Cured (%), Table 7, 40 mg/kg, 1 dose, oral gavage): 100%; responders at 80 mg/kg (Plasmodium berghei [2]; read-out: Mice Cured (%), Table 7, 80 mg/kg, 1 dose, oral gavage): 100% |
| NC1CCN(C(=O)C[C@@H]2CCC[C@]3(C2)OOC2(O3)C3CC4CC(C3)CC2C4)CC1 (stereo partly drawn) [12i, 1-(4-Aminopiperidin-1-yl)-2-((R,R)-dispiro[adamantane-2,3′-[1,2,4]trioxolane-5′,1″-cyclohexan]-3″-yl)ethan-1-one] | 1.41 | 8.2 μL/min/mg of protein | stable | – | – | – |
| NCCNC(=O)C[C@@H]1CCC[C@]2(C1)OOC1(O2)C2CC3CC(C2)CC1C3 (stereo partly drawn) [12c, N-(2-Aminoethyl)-2-((R,R)-dispiro[adamantane-2,3′-[1,2,4]trioxolane-5′,1″-cyclohexan]-3″-yl)acetamide] | 1.41 | 8.2 μL/min/mg of protein | – | 100 | 100 | T1/2 (min) No NADPH ([1]; mouse liver microsomes, no NADPH): 136 min; responders at 0.5 mg/kg/day (Plasmodium berghei [2]; Table 5, 0.5 mg/kg/day, once a day for four days, oral gavage, read-out: Mice Cured (%)): 0%; responders at 1 mg/kg/day (Plasmodium berghei [2]; Table 5, 1 mg/kg/day, once a day for four days, oral gavage, read-out: Mice Cured (%)): 0%; responders at 2 mg/kg/day (Plasmodium berghei [2]; Table 5, 2 mg/kg/day, once a day for four days, oral gavage, read-out: Mice Cured (%)): 0%; responders at 4 mg/kg/day (Plasmodium berghei [2]; Table 5, 4 mg/kg/day, once a day for four days, oral gavage, read-out: Mice Cured (%)): 100%; responders at 4 mg/kg (Plasmodium berghei [2]; 1 dose, oral gavage, read-out: Mice Cured (%)): 0%; responders at 4 mg/kg (Plasmodium berghei [2]; 2 daily doses, oral gavage, read-out: Mice Cured (%)): 0%; responders at 4 mg/kg (Plasmodium berghei [2]; 4 daily doses, oral gavage, read-out: Mice Cured (%)): 100%; responders at 40 mg/kg (Plasmodium berghei [2]; Table 7, 40 mg/kg, 2 doses, oral gavage, read-out: Mice Cured (%)): 100%; responders at 4 mg/kg (Plasmodium berghei [8]; Table 6, 4 mg/kg, 3 daily doses): 20%; responders at 40 mg/kg (Plasmodium berghei [8]; Table 7, 40 mg/kg, 1 dose): 0%; responders at 80 mg/kg (Plasmodium berghei [8]; Table 7, 80 mg/kg, 1 dose): 20% |
| Cc1ncc2n1-c1ccc(Cl)cc1C(c1ccccc1F)=NC2 [midazolam] | 0.0275 | – | – | – | – | CLint ([1]; mouse liver microsomes, CLint = Ln(2)*1000/T1/2/protein concentration): 420 μL/min/mg of protein |
| CN1CCN(C(=O)C[C@@H]2CCC[C@]3(C2)OOC2(O3)C3CC4CC(C3)CC2C4)CC1 (stereo partly drawn) [12h, 2-((R,R)-Dispiro[adamantane-2,3′-[1,2,4]trioxolane-5′,1″-cyclohexan]-3″-yl)-1-(4-methylpiperazin-1-yl)ethan-1-one] | – | – | – | 0 | 0 | – |
| NC(=O)CNC(=O)C[C@@H]1CCC[C@]2(C1)OOC1(O2)C2CC3CC(C2)CC1C3 (stereo partly drawn) [12b, N-(2-Amino-2-oxoethyl)-2-((R,R)-dispiro[adamantane-2,3′-[1,2,4]trioxolane-5′,1″-cyclohexan]-3″-yl)acetamide] | 0.622 | 18.6 μL/min/mg of protein | stable | – | – | – |
| O=C(NCCCNC(=O)C12CC3CC(C1)[C@]1(OO[C@]4(CC[C@@H](c5ccc(OCCN6CCOCC6)cc5)CC4)O1)C(C3)C2)c1ccc(F)cc1 [B9[^18F], N-(3-(4-[^18F]fluorobenzamido)propyl)-4″-(4-(2-morpholinoethoxy)phenyl)dispiro[adamantane-2,3′-[1,2,4]trioxolane-5′,1″-cyclohexane]-5-carboxamide] | – | – | – | – | – | biodistribution, subcutaneous vs renal capsule PC3 tumor (PC3 tumor; 300 μCi i.v. tail vein, 60 minutes post-injection): no major differences noticed between the two xenograft models; radioactivity in the tumor (PC3 tumor; PC3-bearing mice, 300 μCi i.v. tail vein, 30, 60 and 90 minutes post-injection): up to 4 % id/gram |
